US20110053982A1, “ETHER BENZYLIDENE PIPERIDINE 5-MEMBERED ARYL CARBOXAMIDE COMPOUNDS USEFUL AS FAAH INHIBITORS” (PFIZER INC., priority 2008, published 2011)
Read-outs that look alike come from different tables or passages of the source.

Tests used:
Human FAAH = biological target: T1, Human FAAH (Homo sapiens, UniProt O00519); experiment: FAAH assay, kinetic analysis of irreversible inhibition (kinact/Ki); type: biochemical
T1 construct: made in house
T1 sequence (O00519 32-579 limits assumed): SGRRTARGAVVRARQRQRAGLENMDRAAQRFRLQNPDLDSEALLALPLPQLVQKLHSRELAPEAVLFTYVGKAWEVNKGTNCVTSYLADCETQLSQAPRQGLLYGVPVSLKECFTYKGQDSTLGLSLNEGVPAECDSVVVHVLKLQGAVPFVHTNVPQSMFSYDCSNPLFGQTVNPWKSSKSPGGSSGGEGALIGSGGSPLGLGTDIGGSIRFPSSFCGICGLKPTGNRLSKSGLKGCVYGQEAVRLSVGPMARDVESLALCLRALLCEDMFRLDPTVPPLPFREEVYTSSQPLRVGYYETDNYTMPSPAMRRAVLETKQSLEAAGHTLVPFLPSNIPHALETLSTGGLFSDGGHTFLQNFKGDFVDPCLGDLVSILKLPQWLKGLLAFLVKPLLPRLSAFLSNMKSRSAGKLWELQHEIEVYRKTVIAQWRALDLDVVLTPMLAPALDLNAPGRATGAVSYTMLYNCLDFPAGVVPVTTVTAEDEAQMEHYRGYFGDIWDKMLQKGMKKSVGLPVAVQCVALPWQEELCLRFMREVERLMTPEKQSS
Protocol: A FAAH assay may be carried out in 384-well clear polystyrene plates in a total volume of 50 μl per well. All percents are by volume. To each well is placed the reaction mixture (40 μl) containing 1-4 nM FAAH, 50 mM NaPi, pH 7.4, 3 mM α-ketoglutarate, 0.15 mM NADH, 7.5 U/ml glutamate dehydrogenase, 2 mM ADP, 1 mM EDTA, and 0.1% Triton X-100 (The concentration shown for each component is the final concentration in the assay). To this mixture is added 5 μl of a compound of Examples 1 to 20 at various concentrations prepared in 50% DMSO (or 5 μl 50% DMSO for controls). This is immediately followed by the addition of 5 μl oleamide (500 μM) dissolved in […] and the reaction mixture is mixed for 1.5 min. The final concentrations of DMSO and EtOH in the assay are each 7.5%. The reactions is then incubated at 30° C. and the absorbance at 340 nm is collected over a period of 90 min with readings taken in 30-second intervals using SpectraMax Plus^384 Microplate Spectrophotometer (Molecular Devices, Sunnyvale, Calif.). Human FAAH used in the assay is prepared as described in the patent application WO 2006/067613. The purity of the enzyme used is preferably greater than 98% based on an analysis by SDS-polyacrylamide gel electrophoresis followed by Coomassie Blue staining.
Initial velocity data (V) is obtained from the slopes of the initial progressive curves. They are plotted as a function of substrate concentration and fit to the Michaelis-Menten equation (1) using Prism (GraphPad Software, Inc., San Diego, Calif.) software to obtain Km and Vmax values.
To obtain potencies of irreversible inhibitors, progressive curves consistent with first order inhibition kinetics (two-step irreversible inhibition mechanism) are fit to equation (2) by nonlinear least squares regressions to determine kobs values at each inhibitor concentration, where [P]t is the absorbance at time t, V0 is a constant related to the steady state rate of the uninhibited reaction, and kobs is the first order rate constant for enzyme inactivation. The inhibitor dissociation constant (Ki) and the first order rate
constant of enzyme inactivation at infinite inhibitor concentration (kinact) are then obtained by fitting the kobs vs. [I] curves to equation (3).

rFAAH = biological target: T2, rFAAH (Rattus norvegicus, UniProt P97612); experiment: FAAH assay, rFAAH kobs/I; type: biochemical; conditions: additional data table, unit not given
T2 sequence (P97612 1-579): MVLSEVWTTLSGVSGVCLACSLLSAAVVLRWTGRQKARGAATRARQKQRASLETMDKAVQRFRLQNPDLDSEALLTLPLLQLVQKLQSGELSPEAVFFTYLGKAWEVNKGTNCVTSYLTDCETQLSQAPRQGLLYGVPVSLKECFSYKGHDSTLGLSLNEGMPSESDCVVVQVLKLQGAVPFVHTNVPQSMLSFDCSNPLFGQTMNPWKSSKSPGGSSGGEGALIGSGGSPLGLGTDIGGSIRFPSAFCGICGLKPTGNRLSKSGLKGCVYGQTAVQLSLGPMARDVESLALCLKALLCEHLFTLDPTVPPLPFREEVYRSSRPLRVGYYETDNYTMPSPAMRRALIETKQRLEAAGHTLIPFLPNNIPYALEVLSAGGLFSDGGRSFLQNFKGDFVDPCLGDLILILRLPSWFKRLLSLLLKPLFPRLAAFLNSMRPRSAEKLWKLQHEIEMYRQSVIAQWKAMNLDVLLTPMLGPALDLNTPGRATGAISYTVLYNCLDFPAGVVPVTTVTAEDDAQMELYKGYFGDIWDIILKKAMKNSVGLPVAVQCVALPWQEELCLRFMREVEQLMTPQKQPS

[1] = additional data table, unit inferred, read-out: hFAAH_Kinact/Ki

| kinact/KI (Human FAAH; [1]) [M⁻¹ s⁻¹] | FAAH_KINACTR:rFAAH:kobs/I (rFAAH) | kinact/KI (Human FAAH; oleamide substrate, 30° C., pH 7.4, read-out: hFAAH KInact/KI) [M⁻¹ s⁻¹] | SMILES |
| --- | --- | --- | --- |
| 2860 | 160 |  | Cc1oncc1NC(=O)N1CCC(=Cc2cccc(OC3CCC(C)(C)CC3)c2)CC1 [4-{3-[(4,4-dimethylcyclohexyl)oxy]benzylidene}-N-(5-methylisoxazol-4-yl)piperidine-1-carboxamide] |
| 7170 | 2580 |  | Cc1noc(NC(=O)N2CCC(=Cc3cccc(OCCCc4cnoc4)c3)CC2)c1C [N-(3,4-dimethylisoxazol-5-yl)-4-[3-(3-isoxazol-4-ylpropoxy)benzylidene]piperidine-1-carboxamide] |
| 10600 | 57.1 |  | Cc1cccc(OCCOc2cccc(C=C3CCN(C(=O)Nc4cnoc4C)CC3)c2)c1 [N-(5-methylisoxazol-4-yl)-4-{3-[2-(3-methylphenoxy)ethoxy]benzylidene}piperidine-1-carboxamide] |
| 3410 | 10600 |  | Cc1noc(NC(=O)N2CCC(=Cc3cccc(OC(C)Cc4ccccc4)c3)CC2)c1C (stereo not drawn) [N-(3,4-dimethylisoxazol-5-yl)-4-[3-(1-methyl-2-phenylethoxy)benzylidene]piperidine-1-carboxamide] |
| 3970 | 5360 |  | Cc1noc(NC(=O)N2CCC(=Cc3cccc(OCC4CCC(F)(F)CC4)c3)CC2)c1C [4-{3-[(4,4-difluorocyclohexyl)methoxy]benzylidene}-N-(3,4-dimethylisoxazol-5-yl)piperidine-1-carboxamide] |
| 1530 | <10.0 |  | O=C(Nc1cnoc1)N1CCC(=Cc2cccc(OC3CCC(F)(F)CC3)c2)CC1 [4-{3-[(4,4-difluorocyclohexyl)oxy]benzylidene}-N-isoxazol-4-ylpiperidine-1-carboxamide] |
| 903 | <11.9 |  | Cc1ncsc1CCOc1cccc(C=C2CCN(C(=O)Nc3cnoc3C)CC2)c1 [N-(5-methylisoxazol-4-yl)-4-{3-[2-(4-methyl-1,3-thiazol-5-yl)ethoxy]benzylidene}piperidine-1-carboxamide] |
| 12900 | 2660 |  | Cc1noc(NC(=O)N2CCC(=Cc3cccc(OCCC4CC4)c3)CC2)c1C [4-[3-(2-cyclopropylethoxy)benzylidene]-N-(3,4-dimethylisoxazol-5-yl)piperidine-1-carboxamide] |
| 959 | 4910 |  | Cc1noc(NC(=O)N2CCC(=Cc3cccc(OC4CCC(C)(C)CC4)c3)CC2)c1C [4-{3-[(4,4-dimethylcyclohexyl)oxy]benzylidene}-N-(3,4-dimethylisoxazol-5-yl)piperidine-1-carboxamide] |
| 646 | <11.3 |  | Cc1oncc1NC(=O)N1CCC(=Cc2cccc(OCC3CCCCO3)c2)CC1 (stereo not drawn) [N-(5-methylisoxazol-4-yl)-4-[3-(tetrahydro-2H-pyran-2-ylmethoxy)benzylidene]piperidine-1-carboxamide] |
|  |  | 5450 | Cc1noc(NC(=O)N2CCC(=Cc3cccc(OCC4CCCCO4)c3)CC2)c1C (stereo not drawn) [Example 1, N-(3,4-dimethylisoxazol-5-yl)-4-[3-(tetrahydro-2H-pyran-2-ylmethoxy)benzylidene]piperidine-1-carboxamide] |

| SMILES | kinact/KI (Human FAAH; [1]) [M⁻¹ s⁻¹] | FAAH_KINACTR:rFAAH:kobs/I (rFAAH) | kinact/KI (Human FAAH; oleamide substrate, 30° C., pH 7.4, read-out: hFAAH KInact/KI) [M⁻¹ s⁻¹] |
| --- | --- | --- | --- |
| CCCCOc1cccc(C=C2CCN(C(=O)Nc3onc(C)c3C)CC2)c1 [4-(3-butoxybenzylidene)-N-(3,4-dimethylisoxazol-5-yl)piperidine-1-carboxamide] | 14800 | 2820 |  |
| CCCC(C)Oc1cccc(C=C2CCN(C(=O)Nc3onc(C)c3C)CC2)c1 (stereo not drawn) [N-(3,4-dimethylisoxazol-5-yl)-4-[3-(1-methylbutoxy)benzylidene]piperidine-1-carboxamide] | 4600 | 4610 |  |
| Cc1oncc1NC(=O)N1CCC(=Cc2cccc(OCC(C)CC(F)(F)F)c2)CC1 (stereo not drawn) [N-(5-methylisoxazol-4-yl)-4-[3-(4,4,4-trifluoro-2-methylbutoxy)benzylidene]piperidine-1-carboxamide] | 3200 | <11.5 |  |
